Numbered stars: 1 amine (or outer) side, 2 acyl side, 3 side chain; on linkers, the order of the positions; unused ones are H or OH. Bridge positions count the residues as written; N and C are the ends. Square brackets hold non-standard residues; d marks the D form. Side chains are listed from the residue outwards. Peptide text beside a SMILES is read from it. * marks the point of attachment. Piperazinyl(4-CH2COOH) = O=C(O)CN1CCN(*)CC1; Trp(1-Me) = Cn1cc(C[C@H](N)C(=O)O)c2ccccc21; NMe3Pal = CN[C@@H](Cc1cccnc1)C(=O)O; NMeF = CN[C@@H](Cc1ccccc1)C(=O)O; NMeE = CN[C@@H](CCC(=O)O)C(=O)O; Aad = N[C@@H](CCCC(=O)O)C(=O)O; CO = O=C([*:1])[*:2]; βAla = NCCC(=O)O
The compounds below were run against T1, Recombinant Human EphA2 Fc Protein (Homo sapiens, UniProt P29317) (assay: SPR interaction analysis (Biacore T200), kinetics of peptides against EphA2). Settings: Recombinant Human EphA2 Fc Protein captured by Human Antibody Capture kit; single-cycle kinetics; 25° C.; HBS-P+ buffer with 1% DMSO.
T1 construct: purchased Elabscience
Format: binding
Description: Example 14 Interaction Analysis by SPR was Performed Using Biacore (Cytiva)
SPR assay was performed using Biacore T200 (Cytiva).
The HBS-P+ buffer (10 mM HEPES (pH7.4), 150 mM NaCl, 0.05% (v/V) Surfactant P20) containing 1% DMSO was used as running buffer. Recombinant Human EphA2 Fc Protein (Fc tag, Elabscience) was captured by Human Antibody Capture kit (Cytiva). Peptide samples in DMSO were diluted with running buffer, and prepared five serial dilutions. Using these serial dilutions, kinetics of peptides against EphA2 was measured at a flow rate of 30 mL/min at 25° C. The method adopted for sample measurement was a single-cycle kinetics method. The analysis was conducted using the evaluation software 3.0 provided with Biacore T200. Kinetics fitting was done on the difference data obtained by subtracting the baseline data from sample measurement data. KD values were calculated based on the association rate constant (ka) and dissociation rate constant (kd).

Kd, < 1 nM:
CC(=O)NCCCC[C@@H](NC(=O)CCNC(=O)[C@@H]1CSCC(=O)N[C@H](C)C(=O)N(C)[C@@H](Cc2cccnc2)C(=O)N[C@@H](CC(N)=O)C(=O)N[C@@H](CC(C)C)C(=O)N[C@@H](CCCC(=O)O)C(=O)N(C)[C@@H](Cc2ccccc2)C(=O)N[C@@H](Cc2cn(C)c3ccccc23)C(=O)N[C@@H](CCCCNC(=O)N2CCN(CC(=O)O)CC2)C(=O)N[C@@H](Cc2cn(C)c3ccccc23)C(=O)N[C@@H]([C@@H](C)O)C(=O)N[C@@H](CCCC(N)=O)C(=O)N1)C(N)=O [PDC_EphA2-00008091, da-Me3Py-N-L-Hgl-MeF-W1Me-KCOpipzaa-W1Me-T-Hgn-C-bA-dkAc-NH2] ({CH2CO}-[dA][NMe3Pal]NL[Aad][NMeF][Trp(1-Me)]K([CO-Piperazinyl(4-CH2COOH)])[Trp(1-Me)]T[Aad](NH2)C[βAla][dK](Ac)-NH2; thioether N-12)
CC(=O)NCCCC[C@@H](NC(=O)CCNC(=O)[C@@H]1CSCC(=O)N[C@H](C)C(=O)N(C)[C@@H](Cc2cccnc2)C(=O)N[C@@H](CC(N)=O)C(=O)N[C@@H](CC(C)C)C(=O)N[C@@H](CCCCNC(=O)N2CCN(CC(=O)O)CC2)C(=O)N(C)[C@@H](Cc2ccccc2)C(=O)N[C@@H](Cc2cn(C)c3ccccc23)C(=O)N[C@@H](CCCCNC(=O)N2CCN(CC(=O)O)CC2)C(=O)N[C@@H](Cc2cn(C)c3ccccc23)C(=O)N[C@@H]([C@@H](C)O)C(=O)N[C@@H](CCCC(N)=O)C(=O)N1)C(N)=O [PDC_EphA2-00008092, da-Me3Py-N-L-KCOpipzaa-MeF-W1Me-KCOpipzaa-W1Me-T-Hgn-C-bA-dkAc-NH2] ({CH2CO}-[dA][NMe3Pal]NLK([CO-Piperazinyl(4-CH2COOH)])[NMeF][Trp(1-Me)]K([CO-Piperazinyl(4-CH2COOH)])[Trp(1-Me)]T[Aad](NH2)C[βAla][dK](Ac)-NH2; thioether N-12)
CC(=O)NCCCC[C@@H](NC(=O)CCNC(=O)[C@@H]1CSCC(=O)N[C@H](C)C(=O)N(C)[C@@H](Cc2cccnc2)C(=O)N[C@@H](CC(N)=O)C(=O)N[C@@H](CC(C)C)C(=O)N[C@@H](CCCC(N)=O)C(=O)N(C)[C@@H](Cc2ccccc2)C(=O)N[C@@H](Cc2cn(C)c3ccccc23)C(=O)N[C@@H](CCCCNC(=O)N2CCN(CC(=O)O)CC2)C(=O)N[C@@H](Cc2cn(C)c3ccccc23)C(=O)N[C@@H]([C@@H](C)O)C(=O)N[C@@H](CCCC(N)=O)C(=O)N1)C(N)=O [PDC_EphA2-00008093, da-Me3Py-N-L-Hgn-MeF-W1Me-KCOpipzaa-W1Me-T-Hgn-C-bA-dkAc-NH2] ({CH2CO}-[dA][NMe3Pal]NL[Aad](NH2)[NMeF][Trp(1-Me)]K([CO-Piperazinyl(4-CH2COOH)])[Trp(1-Me)]T[Aad](NH2)C[βAla][dK](Ac)-NH2; thioether N-12)
CC(=O)NCCCC[C@@H](NC(=O)CCNC(=O)[C@@H]1CSCC(=O)N[C@H](C)C(=O)N(C)[C@@H](Cc2cccnc2)C(=O)N[C@@H](CC(N)=O)C(=O)N[C@@H](CC(C)C)C(=O)N[C@@H](CCCC(=O)O)C(=O)N(C)[C@@H](CCC(=O)O)C(=O)N[C@@H](Cc2cn(C)c3ccccc23)C(=O)N[C@@H](CCCCNC(=O)N2CCN(CC(=O)O)CC2)C(=O)N[C@@H](Cc2cn(C)c3ccccc23)C(=O)N[C@@H]([C@@H](C)O)C(=O)N[C@@H](CCCC(N)=O)C(=O)N1)C(N)=O [PDC_EphA2-00008094, da-Me3Py-N-L-Hgl-MeE-W1Me-KCOpipzaa-W1Me-T-Hgn-C-bA-dkAc-NH2] ({CH2CO}-[dA][NMe3Pal]NL[Aad][NMeE][Trp(1-Me)]K([CO-Piperazinyl(4-CH2COOH)])[Trp(1-Me)]T[Aad](NH2)C[βAla][dK](Ac)-NH2; thioether N-12)

Source: patent US20260098061A1, “EPHA2-BINDING PENDING PEPTIDE AND COMPOSITION COMPRISING SAME” (PeptiDream Inc., priority 2022, published 2026)
